We go through 17 compounds from US9839642B2, “Beta-tetrazolyl-propionic acids as metallo-beta-lactamase inhibitors” (priority 2014, dated 2017).

pIC50: −log10 of the molar value.

What is called pIC50 is the negative decadic logarithm of the IC50, by convention in mol/L.

The test system of test [1] is Escherichia coli expressing NDM-1 (CLB30016). The experiment in a line: Antibiotic potentiation activity: synergistic concentration (MITC95) with imipenem, growth by OD600. The format is cell-based. To be noted: E. coli CLB30016 (NDM-1), 95% inhibition of growth. An outline of the steps: (§1)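 Strains grown overnight at 35° C, resuspended in saline, diluted 1:100 into 1.1×CAMHB; imipenem at 1 μg/ml or 4 μg/ml with test compound 200 μM to 0.195 μM. Incubated 22 hours to 24 hours at 35° C, OD600 read; MITC95 is lowest compound concentration inhibiting 95% of growth.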

Test [2] deals with Serratia marcescens expressing IMP-1 (CL5741). The description is as above. The format is cell-based. The note with it: S. marcescens CL5741 (IMP-1), 95% inhibition of growth. In a few lines: as §1
In test [3] the test system is Klebsiella pneumoniae expressing VIM-1 (IHMA599644). Described as above. The format is cell-based. To be noted: K. pneumoniae IHMA599644 (VIM-1), 95% inhibition of growth. An outline of the steps: as §1
Test [4] has as its target IMP-1 (Serratia marcescens, UniProt P52699). The experiment in a line: Enzyme activity: determination of IC50, fluorescence assay with CCF2-FA substrate. The format is biochemical. To be noted: IMP-1 enzyme 2 pM, CCF2-FA 1.25 μM, 2 hours at 25° C.; read-out: IMP1 IC50. An outline of the steps: (§2)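 Read-out: fluorescence, ex 405 nm / em 460 nm, after 2 h at 25° C with 1.25 μM CCF2-FA. Buffer 100 mM KH2PO4 pH 7, 0.005% Tween-20, 10 μM ZnSO4; enzyme 1 pM NDM-1, 2 pM IMP-1, 30 pM VIM-1. IC50 by 4-parameter fit.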

Test [5] concerns the target VIM-1 (Pseudomonas aeruginosa, UniProt A0A0F7KYQ8). The test is described as above. The note with it: VIM-1 enzyme 30 pM, CCF2-FA 1.25 μM, 2 hours at 25° C.; read-out: VIM1 IC50. Format: biochemical. In a few lines:
as §2

For test [6], the target named is NDM-1 (Klebsiella pneumoniae, UniProt C7C422). The test is described as above. The format is biochemical. The note with it: NDM-1 enzyme 1 pM, CCF2-FA 1.25 μM, 2 hours at 25° C.; read-out: NDM1 IC50. In a few lines:
as §2

Sequence of IMP-1 (P52699 19-246, looked up, species assumed): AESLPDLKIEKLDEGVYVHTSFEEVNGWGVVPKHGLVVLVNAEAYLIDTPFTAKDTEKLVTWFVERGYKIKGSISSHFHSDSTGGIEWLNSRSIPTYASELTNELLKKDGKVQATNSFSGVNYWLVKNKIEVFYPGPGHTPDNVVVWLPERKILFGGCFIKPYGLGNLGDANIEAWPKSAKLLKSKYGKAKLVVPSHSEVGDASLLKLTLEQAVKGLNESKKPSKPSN
Sequence of NDM-1 (C7C422 29-270, looked up, species assumed): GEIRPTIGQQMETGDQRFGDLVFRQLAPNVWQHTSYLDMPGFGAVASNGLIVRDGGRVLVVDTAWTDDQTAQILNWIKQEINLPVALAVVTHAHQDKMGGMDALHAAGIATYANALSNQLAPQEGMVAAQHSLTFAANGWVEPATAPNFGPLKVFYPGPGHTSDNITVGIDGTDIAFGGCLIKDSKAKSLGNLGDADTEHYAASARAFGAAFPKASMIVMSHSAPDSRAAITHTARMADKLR

On to `CC(C)C[C@H](C(=O)O)[C@H](Cc1ccc(Oc2cccc(CN)c2)nc1)c1nn[nH]n1` [Example 400, (2S)-2-[(1S)-2-{6-[3-(aminomethyl)phenoxy]pyridin-3-yl}-1-(2H-tetrazol-5-yl)ethyl]-4-methylpentanoic acid], for which, in test [1], the “NDM1 EC30016 MITC95” value was determined as 12.5 µM. Further, in test [2], the “IMP1 SM5741 MITC95” value came to 25 µM. Further, in test [3], the “VIM1 KP599644 MITC95” value came to 50 µM. The pIC50 is 6.12 in test [4], 7.38 in test [5] and 6.47 in test [6].

With `CCC[C@H](C(=O)O)[C@H](Cc1ccccc1-c1ccc(S(N)(=O)=O)cc1)c1nn[nH]n1` [Example 401, (2S)-2-[(1S)-2-(4′-sulfamoylbiphenyl-2-yl)-1-(2H-tetrazol-5-yl)ethyl]pentanoic acid], the “NDM1 EC30016 MITC95” value in test [1] is 9.4 µM. Besides, the “IMP1 SM5741 MITC95” value in test [2] is 50 µM. In addition, the “VIM1 KP599644 MITC95” value in test [3] was 50 µM. In addition, the pIC50 in test [4] was 5.72; in test [5], 7.89; in test [6] it was 8.41.

Regarding `CCC[C@H](C(=O)O)[C@H](Cc1ccccc1-c1ccc(NS(C)(=O)=O)cc1)c1nn[nH]n1` [Example 402, (2S)-2-[(1S)-2-{4′-[(methylsulfonyl)amino]biphenyl-2-yl}-1-(2H-tetrazol-5-yl)ethyl]pentanoic acid], the “NDM1 EC30016 MITC95” value in test [1] was found to be 3.1 µM. The “IMP1 SM5741 MITC95” value in test [2] was determined as 12.5 µM. The “VIM1 KP599644 MITC95” value in test [3] was determined as 25 µM. Also, the pIC50 is 6.64 in test [4], 8.82 in test [5] and 10.02 in test [6].

Turning to `CCC[C@H](C(=O)O)[C@H](Cc1ccccc1-c1ccc(CO)cc1)c1nn[nH]n1` [Example 403, (2S)-2-[(1S)-2-[4′-(hydroxymethyl)biphen-yl-2-yl]-1-(2H-tetrazol-5-yl)ethyl]pentanoic acid], the “NDM1 EC30016 MITC95” value in test [1] is 9.4 µM. The “IMP1 SM5741 MITC95” value in test [2] was 18.8 µM. In addition, the “VIM1 KP599644 MITC95” value in test [3] came to 50 µM. Further, the pIC50 in test [4] was 6.26; in test [5] it was 8.48; in test [6], 8.62.

In the case of `CC(C[C@H](C(=O)O)[C@H](Cc1ccc(N)nc1)c1nnn[nH]1)c1ccccc1` (stereo partly drawn) [Example 404, (2S)-2-((S)-2-(6-aminopyridin-3-yl)-1-(1H-tetrazol-5-yl)ethyl)-4-phenylpentanoic acid], in test [1], the “NDM1 EC30016 MITC95” value turned out to be 18.75 µM. Further, in test [2], the “IMP1 SM5741 MITC95” value worked out at 75 µM. Further, the “VIM1 KP599644 MITC95” value in test [3] came out at 75 µM. Besides, the pIC50 in test [4] was 6.21; in test [5] it was 7.66; in test [6], 6.64.

With `CCC[C@H](C(=O)O)[C@H](CCc1ccc(N)nc1)c1nnn[nH]1` [Example 405, (2S,3S)-5-(6-aminopyridin-3-yl)-2-propyl-3-(1H-tetrazol-5-yl)pentanoic acid], the “NDM1 EC30016 MITC95” value in test [1] came to 12.5 µM. Also, the “IMP1 SM5741 MITC95” value in test [2] was 200 µM. The “VIM1 KP599644 MITC95” value in test [3] was 12.5 µM. Also, the pIC50 in test [4] was 4.83; in test [5], 7.40; in test [6], 5.55.

For the compound `CCC[C@H](C(=O)O)[C@H](CCCc1ccc(N)nc1)c1nnn[nH]1` [Example 406, (2S,3S)-6-(6-aminopyridin-3-yl)-2-propyl-3-(1H-tetrazol-5-yl)hexanoic acid], the “NDM1 EC30016 MITC95” value in test [1] came out at 6.25 µM. The “IMP1 SM5741 MITC95” value in test [2] is 37.5 µM. The “VIM1 KP599644 MITC95” value in test [3] was 6.25 µM. Further, the pIC50 in test [4] was 6.09; in test [5], 7.83; in test [6], 6.37.

As for `CC(C)C[C@H](C(=O)O)[C@H](Cc1cc(Cl)nc(NCCO)c1)c1nnn[nH]1` [Example 407], the “NDM1 EC30016 MITC95” value in test [1] is 18.75 µM. Further, the “IMP1 SM5741 MITC95” value in test [2] was determined as 75 µM. For the same compound, the “VIM1 KP599644 MITC95” value in test [3] was determined as 50 µM. The pIC50 in test [4] is 6.03; in test [5] it was 8.65; in test [6], 7.46.

For `CCC[C@H](C(=O)O)[C@H](Cc1ccc(C2CCNCC2)nc1)c1nnn[nH]1` [Example 408, (S)-2-((S)-2-(6-(piperidin-4-yl)pyridin-3-yl)-1-(1H-tetrazol-5-yl)ethyl)pentanoic acid], the “NDM1 EC30016 MITC95” value in test [1] was 7.813 µM. In test [2], the “IMP1 SM5741 MITC95” value was determined as 75 µM. For the same compound, in test [3], the “VIM1 KP599644 MITC95” value came to 25 µM. In addition, the pIC50 in test [4] is 5.46; in test [5] it was 8.19; in test [6] it was 6.60.

Turning to `CCC[C@H](C(=O)O)[C@H](Cc1ccc(C2CCNC2)nc1)c1nnn[nH]1` (stereo partly drawn) [Example 409, (2S)-2-((1S)-2-(6-(pyrrolidin-3-yl)pyridin-3-yl)-1-(1H-tetrazol-5-yl)ethyl)pentanoic acid], the “NDM1 EC30016 MITC95” value in test [1] worked out at 12.5 µM. In addition, the “IMP1 SM5741 MITC95” value in test [2] is 200 µM. In test [3], the “VIM1 KP599644 MITC95” value was determined as 25 µM. The results for the pIC50 in test [4], in test [5] and in test [6] were 4.70, 7.85 and 6.09, respectively.

On to `CCC[C@H](C(=O)O)[C@H](Cc1ccc(C2CCN(C=N)C2)nc1)c1nnn[nH]1` (stereo partly drawn) [Example 410, (2S)-2-((1S)-2-(6-(1-(iminomethyl)pyrrolidin-3-yl)pyridin-3-yl)-1-(1H-tetrazol-5-yl)ethyl)pentanoic acid], for which the “NDM1 EC30016 MITC95” value in test [1] turned out to be 7.813 µM. Moreover, the “IMP1 SM5741 MITC95” value in test [2] came to 75 µM. For the same compound, the “VIM1 KP599644 MITC95” value in test [3] worked out at 25 µM. Besides, the pIC50 in test [4] was 5.22; in test [5] it was 8.21; in test [6], 6.38.

In the case of `CCC[C@H](C(=O)O)[C@H](Cc1ccc(C2CCN(C(=N)N)C2)nc1)c1nnn[nH]1` (stereo partly drawn) [Example 411, (2S)-2-((1S)-2-(6-(1-carbamimidoylpyrrolidin-3-yl)pyridin-3-yl)-1-(1H-tetrazol-5-yl)ethyl)pentanoic acid], the “NDM1 EC30016 MITC95” value in test [1] amounted to 4.688 µM. Also, the “IMP1 SM5741 MITC95” value in test [2] is 50 µM. Also, the “VIM1 KP599644 MITC95” value in test [3] is 12.5 µM. Also, the pIC50 in test [4] is 5.56; in test [5], 8.53; in test [6], 6.75.

For the compound `CCC[C@H](C(=O)O)[C@H](Cc1ccc(C2CCNCC2)cc1)c1nnn[nH]1` [Example 412, (S)-2-((S)-2-(4-(piperidin-4-yl)phenyl)-1-(1H-tetrazol-5-yl)ethyl)pentanoic acid], in test [1], the “NDM1 EC30016 MITC95” value worked out at 9.375 µM. In test [2], the “IMP1 SM5741 MITC95” value was 9.375 µM. Also, the “VIM1 KP599644 MITC95” value in test [3] is 12.5 µM. Moreover, the pIC50 in test [4] is 6.56; in test [5], 8.35; in test [6] it was 7.15.

Take `CCC[C@H](C(=O)O)[C@H](Cc1ccc(C2CCNC2)cc1)c1nnn[nH]1` (stereo partly drawn) [Example 413, (2S)-2-((1S)-2-(4-(pyrrolidin-3-yl)phenyl)-1-(1H-tetrazol-5-yl)ethyl)pentanoic acid]: the “NDM1 EC30016 MITC95” value in test [1] was found to be 6.25 µM. Further, the “IMP1 SM5741 MITC95” value in test [2] was found to be 25 µM. For the same compound, the “VIM1 KP599644 MITC95” value in test [3] worked out at 12.5 µM. Moreover, the pIC50 is 5.96 in test [4], 8.34 in test [5] and 6.84 in test [6].

On to `CCC[C@H](C(=O)O)[C@H](Cc1ccc(C2CCN(C(=N)N)C2)cc1)c1nnn[nH]1` (stereo partly drawn) [Example 414, (2S)-2-((1S)-2-(4-(1-carbamimidoylpyrrolidin-3-yl)phenyl)-1-(1H-tetrazol-5-yl)ethyl)pentanoic acid], for which the “NDM1 EC30016 MITC95” value in test [1] was determined as 4.688 µM. Also, the “IMP1 SM5741 MITC95” value in test [2] came out at 9.375 µM. Moreover, in test [3], the “VIM1 KP599644 MITC95” value was 12.5 µM. Besides, the pIC50 in test [4] is 6.67; in test [5], 8.82; in test [6], 7.16.

In the case of `CCC[C@H](C(=O)O)[C@H](Cc1ccc(C2CCN(C=N)C2)cc1)c1nnn[nH]1` (stereo partly drawn) [Example 415, (2S)-2-((1S)-2-(4-(1-(iminomethyl)pyrrolidin-3-yl)phenyl)-1-(1H-tetrazol-5-yl)ethyl)pentanoic acid], the “NDM1 EC30016 MITC95” value in test [1] is 9.375 µM. In test [2], the “IMP1 SM5741 MITC95” value stood at 12.5 µM. For the same compound, the “VIM1 KP599644 MITC95” value in test [3] worked out at 18.75 µM. Moreover, the pIC50 in test [4] was 6.41; in test [5] it was 8.36; in test [6], 6.92.

With `CCC[C@H](C(=O)[O-])[C@H](Cc1cc[n+](C)cc1)c1nnn[nH]1` [Example 417, (S)-2-((S)-2-(1-methylpyridin-1-ium-4-yl)-1-(1H-tetrazol-5-yl)ethyl)pentanoate], in test [1], the “NDM1 EC30016 MITC95” value turned out to be 4.688 µM. Further, the “IMP1 SM5741 MITC95” value in test [2] is 200 µM. In addition, the “VIM1 KP599644 MITC95” value in test [3] was 9.375 µM. The pIC50 in test [4] was 4.96; in test [5], 7.35; in test [6], 5.89.
